Reference: US12070457B2, “Substituted pyridines, pyridazines, pyrimidines, and 1,2,3-triazines as bruton's tyrosine kinase inhibitors” (HUTCHISON MEDIPHARMA LIMITED, priority 2020, dated 2024)

Assays:
BTK recombinant protein = BTK recombinant protein (Homo sapiens (Human), UniProt Q06187); assay: Determination of biochemical BTK (Z'-LYTE kinase assay)
From the text: Example 2 Determination of Biochemical BTK
(§1) 1. Reagents and Materials
• BTK recombinant protein: Invitrogen, Cat #PV3363; • Z′-LYTE® kinase test kit-tyrosine 1 peptide: Invitrogen, Cat #PV3190; • 384-well low-flange black flat-bottomed polystyrene NBS microplate, no lid, no sterilization: Corning, Cat #3575; • 96-well polystyrene conical-bottomed MicroWell™ plate, sealed with a lid: Thermo Scientific™ Nunc™, Cat #277143; • Envision multi-mode plate reader: PerkinElmer; • Mixmate® shaker: Eppendorf; • TS-2102 shaking incubator: TENSUC; 2. Methods
Z′-LYTE® biochemical assay employs a fluorescence resonance energy transfer (FRET)-based, coupled-enzyme format and is based on the differential sensitivity of phosphorylated and non-phosphorylated peptides to proteolytic cleavage. Both ends of the short peptide substrate are labeled with two fluorescent groups to form a FRET paired combination. In the primary reaction (the Kinase Reaction), the kinase transfers the γ-phosphate of ATP to a single […] residue on the short peptide substrate. In the secondary reaction (the development reaction), the non-phosphorylated short peptides were recognized and cleaved by a site-specific protease (the development reagent). Phosphorylated short peptides can resist such cleavage. Cleavage of short peptides can disrupt the donor (such as coumarin) and receptor fluorophores (fluorescein) on the short peptides, while the phosphorylated short peptides can maintain FRET. The calculation method of the ratio is as follows, and the ratio of the respective emission signals generated by the donor fluorophores emitted (after excitation at 400 nm) to the receptors is calculated. Emission signal ratio=emitted light by coumarin (445 nm)/emitted light by fluorescein (520 nm). If the FRET short peptide is phosphorylated (such as no kinase inhibitor), the emitted light ratio will remain in a lower level. If the FRET short peptide is non-phosphorylated (such as kinase inhibitor), the emitted light ratio will be in a higher level. In this way, the inhibitory effects of different compound inhibitors on BTK kinase activity would be distinguished.
The experiment were carried out according to the instructions of the Z′-LYTE® kinase test kit-tyrosine 1 peptide. Reagent preparation: 1.33× kinase buffer: 5× kinase buffer was diluted with water to 1.33× kinase buffer; an enzyme solution: the kinase was dissolved in 1.33× kinase buffer with the final working concentration being 3.32 nM; a short peptide solution: a short peptide stock solution (1 mM dissolved in DMSO) was dissolved in 1.33× kinase buffer with the final working concentration being 2 μM; Z′-LYTE Tyr01 phosphorylated short peptide solution, 0.6 μl of stock solution (1 mM dissolved in DMSO) was dissolved in 149.4 μl of 1.33× kinase buffer; an ATP solution: an ATP stock solution (10 mM aqueous solution) was dissolved in 1.33× kinase buffer with the final working concentration being 32 μM; a color-developing solution: color-developing solution B was dissolved in color-developing buffer with the final working concentration being 1× color-developing solution; 4× compound preparation: the compound was diluted in 3-fold gradient concentration to finally obtain 4% DMSO aqueous solution containing different concentrations of the compound, with the final working concentration being 3000, 1000, 333.33, 111.11, 37.04, 12.35, 4.12, 1.37 nM, 8 concentration points in total.
Specific steps of the experiment: In the experiment, there were three control groups, each with 8 replicate wells, which were C1 100% inhibition group (no ATP), C2 0% inhibition group (with ATP), and C3 100% phosphorylation group, respectively. 2.5 μl of serially diluted compound was added to each well of a 384-well plate, with double replicate wells, and 4% DMSO solution was added to wells C1, C2, and C3. […]

[1] = target: phosphorylated BTK in Ramos cells (Homo sapiens (Human), UniProt Q06187); assay: Determination of phosphorylated BTK in Ramos cells (BTK phospho-Y223 HTRF); type: cell-based
Procedure: Determination of Phosphorylated BTK in Ramos Cells
as §1
• Ramos cells: Ramos cells were purchased from American Standard Biological Collection Center ATCC Cell Bank, PRMI 1640 medium containing L-glutamine, 1.5 g/L of sodium bicarbonate, 2.383 g/L of HEPES solution, 0.11 g/L of sodium pyruvate and 4.5 g/L of glucose was used, added 10% fetal bovine serum FBS, and placed in a 5% C02, 37° C. cell incubator for normal culture; • PRMI 1640 medium: GIBCO, Cat #A10491-01; • Fetal bovine serum (FBS): GIBCO, Cat #100100-147; • Hank's balanced salt solution (HBSS): GIBCO, Cat #14025-092; • Immunoglobulin M (IgM): Jackson Immuno, Cat #109-006-129; • 3% hydrogen peroxide (3% H2O2): Sigma, Cat #88597-100 ML-F; • Phosphorylated BTK HTRF detection kit (BTK phospho-Y223 HTRF kit): Cisbio, Cat #63ADK017PEH; • Microwell plate reader: Envision, Perkin Elmer; • 384-well plate CulturPlate™384: Perkin Elmer, Cat #6007680 • 96-well plate: Corning, Cat #3799. 2. Methods
Ramos cells were starved in PRMI 1640 medium with 1% FBS for 2 hours. The starved Ramos cells were diluted with Hank's balanced salt solution to 5.0×10^6 cells/ml, seeded in a 96-well plate with 20 μL/well (1.0×10^5 cells/well), and cultured in a 5% CO2, 37° C. cell incubator. […]
The 384 well plate incubated overnight in the constant temperature incubator was taken out to detect the luminescence signal using the Envision microwell plate reader at the […]. The reading value at 665 nm/615 nm of each well multiplied by 104 was used as the signal value of each well.
The average signal value of the wells supplemented with the mixed solution of human immunoglobulin M (final concentration was 10 μg/mL) and hydrogen peroxide (final concentration was 3.3 mM) without the test compound was regarded as the high value, and the average signal value of the wells without immunoglobulin M stimulation and without the test compound was regarded as the low value. According to the signal value in each well, the inhibition ratio (%) of each concentration of compounds was calculated, and the 205 model in XL-Fit 5.3 software (ID Business Solutions Limited) was used to obtain an IC50 value. […]

[2] = Stability test in liver microsomes (mouse); type: in vitro ADME; conditions: 1 μM compound; for stability in mouse liver microsomes compared with reference GDC-0853: 0.5 mg/mL liver microsomes, 30 minutes incubation; for MLM, percentage of remaining compound after 30 minutes of incubation: mouse liver microsomes
From the text: (§2) Example 5 Stability Test in Liver Microsomes
(§3) Both male CD-1 mouse pooled liver microsomes and male SD rat pooled liver microsomes were purchased from BioreclamationIVT Corporation, USA.
(§4) Phenacetin, glucose-6-phosphate dehydrogenase (G-6-PDH) and nicotinamide adenine dinucleotide phosphate (NADP) were all purchased from Sigma-Aldrich Corporation, USA. Glucose-6-phosphate (G-6-P) was purchased from Shanghai Eybridge Chemical Technology Co., Ltd.
(§5) Ten mM test compound stock solution: a certain amount of test compound was weighed, and dissolved with an appropriate volume of DMSO to prepare a stock solution with a concentration of 10 mM for use.
(§6) Reaction stopping solution: an appropriate amount of internal standard compound phenacetin was dissolved in acetonitrile to prepare a reaction stopping solution with a concentration of 1000 ng/mL for use at room temperature.
(§7) The test compound stock solution was diluted with an organic solvent (usually a mixture of acetonitrile, methanol and water with various ratios, depending on the solubility of the compound, if necessary, 1 N hydrochloric acid or 1 N sodium hydroxide would be added to facilitate solubilization) to the 0.1 mM (the final concentration of the compound in the reaction system was 1 μM) and the concentration percentage of the organic solvents in the incubation system no more than 1% (wherein the percentage of DMSO was required to be no more than 0.1%). An appropriate amount of 100 mM NADP, 500 mM G-6-P and 100 Unit/mL G-6-PDH were mixed and diluted with ultrapure water (the final system contains 1 mM NADP, 5 mM G-6-P and 1 Unit/mL G-6-PDH), pre-incubated in a 37° C. water bath for 10 minutes and then placed on ice for use as a NADPH regeneration solution. 20 mg/mL liver microsomes solution and 200 mM phosphate buffer was mixed, and diluted with ultrapure water to give a liver microsomes solution containing 2.5 mg/mL liver microsomes (the final concentration of the reaction system is 0.5 mg/mL) and 50 mM phosphate buffer. The diluted liver microsomes solution was mixed with 0.1 mM compound solution, a mixture of 100 mM EDTA, 300 mM MgCl2 solution, 200 mM phosphate buffer (the final system was 3 mM MgCl2, 1 mM EDTA and 50 mM phosphate buffer) and water in an appropriate volume was added. Finally, the NADPH regeneration solution was added, then the reaction solution was placed in a 37° C. water bath to start the reaction (the reaction time was 30 minutes), and the reaction was stopped by adding the ice-cold acetonitrile reaction stopping solution containing the internal standard. The 0-minute sample was not incubated in a 37° C. water bath, and its difference from the 30-minute sample further lies in that the ice-cold acetonitrile reaction stopping solution containing the internal standard was added first, and then the NADPH regeneration solution was added. The sample added with the reaction stopping internal standard solution was vortexed and mixed well, and then centrifuged at 4400 rpm for 10 minutes. The supernatant was taken and diluted ten times with 50% methanol for LC-MS/MS analysis.
(§8) LC-MS/MS was used to determine the concentration of the compound in the sample. The percentage of the remaining compound after 30 minutes of incubation comparing with that in the 0-minute sample was calculated using the peak area ratio of the compound to the internal standard as an indicator, to evaluate the metabolic stability of the compound.
(§9) Instrument: API4500, API4000 or LTQ Mass Spectrometer; the liquid phase is UHPLC system (Shimadzu LC-30 AD, model Nexra X2) including liquid delivery unit, column thermostat, detector and autosampler; or Agilent 1200 Binary Pump series HPLC and CTC Autosampler.
(§10) Chromatographic column: Waters XSELECT Hss T3 C18 (2.5 μm, 2.1×50 mm) or […] (5 μm, 2.0×50 mm)
(§11) Mobile phase: • A: water with 0.1% FA (formic acid) (with or without 0.1% ACN (acetonitrile)) • B: acetonitrile with 0.1% FA (formic acid).

[3] = Stability test in liver microsomes (rat); type: in vitro ADME; conditions: 1 μM compound; for stability in rat liver microsomes compared with reference GDC-0853: 0.5 mg/mL liver microsomes, 30 minutes incubation; for RLM, percentage of remaining compound after 30 minutes of incubation: rat liver microsomes
From the text: as §2, §3, §4, §5, §6, §7, §8, §9, §10, §11

Sequence of phosphorylated BTK in Ramos cells (Q06187 whole entry): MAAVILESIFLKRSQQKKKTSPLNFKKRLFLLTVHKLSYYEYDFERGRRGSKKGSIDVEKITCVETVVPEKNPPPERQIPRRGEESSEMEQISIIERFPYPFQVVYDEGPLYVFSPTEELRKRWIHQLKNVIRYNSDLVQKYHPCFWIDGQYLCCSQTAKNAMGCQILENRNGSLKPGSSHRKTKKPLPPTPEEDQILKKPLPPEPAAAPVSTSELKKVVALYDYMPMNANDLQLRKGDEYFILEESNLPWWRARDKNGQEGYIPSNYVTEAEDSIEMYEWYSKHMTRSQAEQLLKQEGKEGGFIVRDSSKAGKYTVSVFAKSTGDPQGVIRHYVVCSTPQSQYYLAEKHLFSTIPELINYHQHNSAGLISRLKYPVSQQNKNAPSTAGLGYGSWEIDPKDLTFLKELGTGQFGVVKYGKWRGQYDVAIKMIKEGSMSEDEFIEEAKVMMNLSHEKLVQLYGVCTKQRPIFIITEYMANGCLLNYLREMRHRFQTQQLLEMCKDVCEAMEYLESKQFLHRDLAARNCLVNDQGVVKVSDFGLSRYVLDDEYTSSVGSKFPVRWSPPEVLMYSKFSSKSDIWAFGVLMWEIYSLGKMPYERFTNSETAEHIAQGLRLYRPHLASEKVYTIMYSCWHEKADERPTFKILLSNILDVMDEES
Sequence of BTK recombinant protein (Q06187 whole entry): as above

“2-(3′-(hydroxymethyl)-5-((5-(2-methoxyethyl)-4-methyl-4,5,6,7-tetrahydropyrazolo[1,5-α]pyrazin-2-yl)amido)-1-methyl-6-oxo-1,6-dihydro-[3,4′-bispyridin]-2′-yl)-7,7-dimethyl-7,8-dihydro-2H-cyclopenta[4,5]pyrrolo[1,2-d][1,2,4]triazin-1(6H)-one optically pure enantiomer [Compound 120]” gave an IC50 (BTK recombinant protein) of 8 nM and an IC50 [1] of 5 nM.

`CC1c2cc(Nc3cc(-c4ccnc(-n5ccn6c7c(cc6c5=O)CCC7)c4CO)cn(C)c3=O)nn2CCN1C1COC1` (racemic) [Compound 144] gave an IC50 (BTK recombinant protein) of 18 nM and an IC50 [1] of 38 nM.

With `COCCN1CCn2nc(Nc3cc(-c4ccnc(-n5ccn6c7c(cc6c5=O)CCC7)c4CO)cn(C)c3=O)cc2C1C` (racemic) [Compound 145] the IC50 (BTK recombinant protein) was 33 nM and the IC50 [1] was 16 nM.

In the case of `C[C@H]1CN(C2COC2)CCN1c1ccc(Nc2nc(-c3ccnc(-n4ccn5c6c(cc5c4=O)CC(C)(C)C6)c3CO)cn(C)c2=O)nc1` [Compound 20], the IC50 (BTK recombinant protein) is reported as 27 nM.

In the case of `C[C@H]1CN(C2COC2)CCN1c1ccc(Nc2cc(-c3ccnc(-n4ccn5c6c(cc5c4=O)CC(C)(C)C6)c3CO)nn(C)c2=O)nc1` [Compound 22], the IC50 (BTK recombinant protein) is reported as 10 nM, the “stability in mouse liver microsomes compared with reference GDC-0853” value [2] is reported as “better than that of the reference GDC-0853” and the “MLM, percentage of remaining compound after 30 minutes of incubation” value [2] is reported as 83.4%. For the same compound, the “stability in rat liver microsomes compared with reference GDC-0853” value [3] was “better than that of the reference GDC-0853” and the “RLM, percentage of remaining compound after 30 minutes of incubation” value [3] was 95.6%.

With `CCn1cc(Nc2cc(-c3ccnc(-n4ccn5c6c(cc5c4=O)CC(C)(C)C6)c3CO)cn(C)c2=O)nn1` [Compound 24] the IC50 (BTK recombinant protein) was 3 nM.

For `CCn1cc(Nc2cc(-c3ccnc(-n4ccn5c6c(cc5c4=O)CC(C)(C)C6)c3CO)nn(C)c2=O)nn1` [Compound 25], the IC50 (BTK recombinant protein) was 8 nM.

With `Cn1cc(-c2ccnc(-n3ccn4c5c(cc4c3=O)CC(C)(C)C5)c2CO)cc(Nc2ccc(N3CCN(C4COC4)CC3=O)cn2)c1=O` [Compound 34] the IC50 (BTK recombinant protein) was 5 nM, the “stability in mouse liver microsomes compared with reference GDC-0853” value [2] was “better than that of the reference GDC-0853” and the “MLM, percentage of remaining compound after 30 minutes of incubation” value [2] was 89.5%. For the same compound, the “stability in rat liver microsomes compared with reference GDC-0853” value [3] was “better than that of the reference GDC-0853” and the “RLM, percentage of remaining compound after 30 minutes of incubation” value [3] was about 100%.

`COCC(C)n1cc(Nc2nc(-c3ccnc(-n4ccn5c6c(cc5c4=O)CC(C)(C)C6)c3CO)cn(C)c2=O)nn1` (centres unmarked) [Compound 42] gave an IC50 (BTK recombinant protein) of 269 nM.
